Data on twelve compounds can be found in ChEMBL document CHEMBL1201862, “PubChem BioAssay data set” (2004).

SMILES strings stand for the structures.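 1) Cells in 96-well plates. 2) Compound, 48 h, 5 concentrations. 3) Linear interpolation between surrounding doses. 4) Unreached endpoint = highest concentration. GI50 is the concentration that inhibits growth by half.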 Calls of active or inactive are those of the source. No stated cut-off is given here; in the data, active = GI50 up to about 1.1 µM and inactive = higher.

Test systems include RXF 393; HCT-116; SK-MEL-2; SN12C; SF-539; M14; SNB-19; K562; OVCAR-4; OVCAR-3; OVCAR-8; HCT-15; MOLT-4; HOP-62; ACHN; SF-295; NCI-H460; SK-MEL-28; RPMI-8226.
Common to all, as to assay: DTP human tumour cell line panel, 48 h

What is called GI50 is the concentration at which growth is held to half of that of the control.

In the case of `COc1ccc(NC(=O)CCc2cc(-c3ccc(O)c(OC)c3)nc(NC#N)n2)cc1`, the GI50 with RXF 393, in the experiment on HCT-116, in the experiment on SK-MEL-2, with SN12C, in the experiment on SF-539 and in the experiment with M14 was > 100 µM (inactive) in each case. The GI50 in the experiment with SNB-19 was > 100 µM (inactive); with K562, > 100 µM (inactive); in the experiment with OVCAR-4, > 100 µM (inactive); with OVCAR-3 it was > 100 µM (inactive); with OVCAR-8, > 100 µM (inactive); with HCT-15, greater than 100 µM. Further, the GI50 with MOLT-4, with HOP-62, in the experiment on ACHN, with SF-295, with NCI-H460 and in the experiment with SK-MEL-28 was > 100 µM (inactive) in each case.

Regarding `CSc1nc2nccnc2c(=O)[nH]1`, the GI50 in the experiment with RXF 393, in the experiment on HCT-116, with SK-MEL-2, in the experiment on SN12C, in the experiment on M14 and with SNB-19 was > 100 µM (inactive) each time. In addition, the GI50 in the experiment on K562 is > 100 µM (inactive); in the experiment with OVCAR-4 it was > 100 µM (inactive); in the experiment with OVCAR-8, > 100 µM (inactive); in the experiment with HCT-15, greater than 100 µM; in the experiment with RPMI-8226, > 100 µM (inactive); in the experiment on MOLT-4, > 100 µM (inactive). The GI50 with HOP-62, in the experiment on ACHN, in the experiment on SF-295, in the experiment with NCI-H460 and with SK-MEL-28 was > 100 µM (inactive) in each case.

As for `Cc1cc(C)n2c(-c3ccccc3)c(C)cc2n1`, the GI50 in the experiment with RXF 393 was 39.4 µM (inactive); with HCT-116 it was 67.8 µM (inactive); with SK-MEL-2, 15.3 µM (inactive); in the experiment on SN12C, 50.5 µM (inactive); in the experiment on SF-539, 24.3 µM (inactive); with M14, 43.5 µM (inactive). Also, the GI50 in the experiment with SNB-19 was 52.2 µM (inactive); in the experiment with K562, 8.17 µM (inactive); with OVCAR-4 it was 73.3 µM (inactive); with OVCAR-3, 25.6 µM (inactive); with OVCAR-8, 49.1 µM (inactive); in the experiment on HCT-15, 16.7 µM. Also, the GI50 was 53.7 µM (inactive) with HOP-62; 95.7 µM (inactive) in the experiment on ACHN; 48 µM (inactive) in the experiment with SF-295; 37.3 µM (inactive) in the experiment on NCI-H460; > 100 µM (inactive) with SK-MEL-28.

Take `CC(C)=CC1C(C(=O)Oc2ccccc2C(C)C)C1(C)C` (stereo not given): the GI50 with RXF 393 was 16.9 µM (inactive); in the experiment with HCT-116 it was 20.8 µM (inactive); in the experiment on SK-MEL-2, 17.1 µM (inactive); in the experiment with SN12C, 20.5 µM (inactive); with M14, 31.6 µM (inactive); in the experiment with SNB-19 it was 34.3 µM (inactive). The GI50 in the experiment with K562 is 25.8 µM (inactive); in the experiment with OVCAR-4, 52 µM (inactive); with OVCAR-3 it was 17.8 µM (inactive); with OVCAR-8, 31.7 µM (inactive); with HCT-15 it was 21 µM; with RPMI-8226, 19.3 µM (inactive). In addition, the GI50 with HOP-62 is 27.9 µM (inactive); in the experiment on ACHN it was 18.4 µM (inactive); in the experiment on SF-295 it was 17.7 µM (inactive); in the experiment on NCI-H460, 22.4 µM (inactive); in the experiment with SK-MEL-28, 39.1 µM (inactive).

As to `N#CC(C#N)=C(N)/C(C#N)=C\c1ccnc2ccccc12`, the GI50 in the experiment on RXF 393 is 18.6 µM (inactive); in the experiment on HCT-116, 0.962 µM (active); with SN12C it was 18.8 µM (inactive); in the experiment on SF-539, 15.1 µM (inactive); with M14 it was 23 µM (inactive); with SNB-19 it was 31.8 µM (inactive). Moreover, the GI50 with K562 is 4.24 µM (inactive); in the experiment with OVCAR-4, 72.6 µM (inactive); with OVCAR-3, 31.3 µM (inactive); in the experiment with OVCAR-8 it was 17.3 µM (inactive); with MOLT-4, 15.8 µM (inactive); with HOP-62 it was 23.9 µM (inactive). Moreover, the GI50 is 40.6 µM (inactive) in the experiment with ACHN, 28.2 µM (inactive) with SF-295, 39.3 µM (inactive) in the experiment with NCI-H460 and 20.2 µM (inactive) in the experiment on SK-MEL-28.

For the compound `CCOC(=O)C1CCC(=O)N1C(=O)c1ccc(Cl)cc1` (stereo not given), the GI50 with RXF 393, in the experiment on HCT-116, in the experiment with SN12C, in the experiment with SF-539, in the experiment with M14 and with SNB-19 was > 100 µM (inactive) in each case. Also, the GI50 was > 100 µM (inactive) with K562; > 100 µM (inactive) with OVCAR-3; > 100 µM (inactive) with OVCAR-8; greater than 100 µM in the experiment with HCT-15; > 100 µM (inactive) in the experiment with RPMI-8226; > 100 µM (inactive) in the experiment on MOLT-4. Besides, the GI50 in the experiment on HOP-62, in the experiment with ACHN, in the experiment with SF-295, in the experiment with NCI-H460 and in the experiment with SK-MEL-28 was > 100 µM (inactive) in each case.

As to `COc1ccc(-c2oc(/C=N/c3ccccc3)c([N+](=O)[O-])c2-c2ccc(OC)c(OC)c2)cc1OC`, the GI50 in the experiment on RXF 393, in the experiment with HCT-116, in the experiment with SN12C, in the experiment with SF-539, in the experiment with M14 and in the experiment on SNB-19 was > 100 µM (inactive) in each case. Besides, the GI50 in the experiment with K562 is > 100 µM (inactive); with OVCAR-4 it was > 100 µM (inactive); in the experiment on OVCAR-3, > 100 µM (inactive); in the experiment on OVCAR-8 it was > 100 µM (inactive); in the experiment on HCT-15, greater than 100 µM; with RPMI-8226, > 100 µM (inactive). For the same compound, the GI50 with MOLT-4, with HOP-62, with ACHN, with SF-295, in the experiment on NCI-H460 and in the experiment on SK-MEL-28 was > 100 µM (inactive) throughout.

With `c1cncc(CSc2nc3ccccc3nc2-c2cccs2)c1`, the GI50 is > 100 µM (inactive) in the experiment on HCT-116; 87.1 µM (inactive) in the experiment with SK-MEL-2; 77.1 µM (inactive) in the experiment with SN12C; 71.8 µM (inactive) in the experiment on SF-539; 92.5 µM (inactive) in the experiment on M14; 77.6 µM (inactive) in the experiment with SNB-19. Moreover, the GI50 is 39.8 µM (inactive) with K562; 53.6 µM (inactive) with OVCAR-4; 20.9 µM (inactive) in the experiment with OVCAR-3; 83.9 µM (inactive) with OVCAR-8; 81.1 µM in the experiment with HCT-15; 32.8 µM (inactive) in the experiment with RPMI-8226. For the same compound, the GI50 in the experiment on MOLT-4 was 24.8 µM (inactive); with HOP-62, 71.3 µM (inactive); with ACHN it was 36.9 µM (inactive); in the experiment on SF-295, > 100 µM (inactive); in the experiment with NCI-H460, 56 µM (inactive); in the experiment on SK-MEL-28, > 100 µM (inactive).

On to `O=C(NN1C(=O)C(Cl)C1c1ccccc1Cl)c1ccccc1O` (stereo not given), for which the GI50 is 15.9 µM (inactive) in the experiment with RXF 393; > 100 µM (inactive) in the experiment with HCT-116; > 100 µM (inactive) in the experiment with SK-MEL-2; > 100 µM (inactive) with SN12C; > 100 µM (inactive) in the experiment with SF-539; > 100 µM (inactive) in the experiment on M14. Besides, the GI50 in the experiment on SNB-19 was > 100 µM (inactive); in the experiment on K562, > 100 µM (inactive); in the experiment with OVCAR-4, > 100 µM (inactive); in the experiment on OVCAR-3, > 100 µM (inactive); in the experiment on OVCAR-8, > 100 µM (inactive); with HCT-15, greater than 100 µM. Also, the GI50 in the experiment on MOLT-4, in the experiment on ACHN, in the experiment on SF-295, in the experiment with NCI-H460 and in the experiment on SK-MEL-28 was > 100 µM (inactive) each time.

Take `C=C(c1ccccc1)c1cc2c(=O)[nH]ccc2n1C`: the GI50 in the experiment with RXF 393 is 19.3 µM (inactive); with SK-MEL-2 it was 21.5 µM (inactive); with SN12C it was 34.2 µM (inactive); in the experiment on M14, 29.2 µM (inactive); with SNB-19, 48 µM (inactive); in the experiment with K562, 13.8 µM (inactive). For the same compound, the GI50 with OVCAR-4 is 35.5 µM (inactive); in the experiment with OVCAR-3 it was 24.8 µM (inactive); with OVCAR-8, 34 µM (inactive); in the experiment with HCT-15, 27.3 µM; in the experiment on RPMI-8226 it was 24.7 µM (inactive); in the experiment on MOLT-4 it was 27.2 µM (inactive). In addition, the GI50 is 25 µM (inactive) in the experiment on HOP-62; 35.7 µM (inactive) with ACHN; 29.9 µM (inactive) in the experiment on SF-295; 30.1 µM (inactive) in the experiment with NCI-H460; 44.7 µM (inactive) in the experiment on SK-MEL-28.

As for `Cc1cc2c(C)nn(Cc3ccc(Cl)cc3)c2c(C#N)c1C`, the GI50 in the experiment with RXF 393 was 45.9 µM (inactive); with HCT-116, > 100 µM (inactive); in the experiment on SK-MEL-2, > 100 µM (inactive); in the experiment with SN12C, > 100 µM (inactive); in the experiment with SF-539, > 100 µM (inactive); in the experiment on SNB-19, 63.5 µM (inactive). For the same compound, the GI50 is > 100 µM (inactive) in the experiment on OVCAR-3; > 100 µM (inactive) in the experiment with OVCAR-8; greater than 100 µM with HCT-15; > 100 µM (inactive) with RPMI-8226; > 10 µM (inactive) in the experiment on MOLT-4; > 100 µM (inactive) with HOP-62. For the same compound, the figures for the GI50 in the experiment on ACHN, in the experiment on SF-295 and in the experiment with SK-MEL-28 were > 100 µM (inactive), 46.2 µM (inactive) and > 100 µM (inactive), respectively.

For `C(=C\C(Sc1ccccc1)c1ccccc1)/NNC1=NN=C(c2ccccc2)C(c2ccccc2)N1` (stereo not given), the GI50 with HCT-116 was 42.2 µM (inactive); in the experiment on SK-MEL-2 it was 74 µM (inactive); in the experiment with SN12C, 55 µM (inactive); in the experiment with SF-539 it was 65.3 µM (inactive); in the experiment with M14, 75 µM (inactive); in the experiment on SNB-19, 48.6 µM (inactive). Further, the GI50 in the experiment on K562 was 13.1 µM (inactive); with OVCAR-4, 83 µM (inactive); with OVCAR-3 it was 33.4 µM (inactive); in the experiment on OVCAR-8, 34.6 µM (inactive); with HCT-15, 23.5 µM; in the experiment on RPMI-8226, 16.4 µM (inactive). Besides, the GI50 with MOLT-4 is 8.2 µM (inactive); in the experiment on HOP-62, 16.5 µM (inactive); with ACHN, 44.7 µM (inactive); in the experiment on SF-295, 32.7 µM (inactive); with NCI-H460, 30.3 µM (inactive); with SK-MEL-28, > 100 µM (inactive).
